Results taken from US9005575B2, “Arg-Gly-Asp-conjugated alpha-melanocyte stimulating hormone hybrid peptide for use in diagnosing and treating melanoma, including metastatic melanoma and methods related to same” (STC.UNM, priority 2009, dated 2015).
Read-outs that look alike come from different tables or passages of the source. Positions of bridges follow the written chain, without caps; N, C: chain ends. Non-standard residues stand in square brackets, D forms with d. Residues, ends and D or L forms follow the SMILES beside them.

Assay: Biodistribution in B16/F1 melanoma-bearing C57 mice
Type: in vivo
Conditions: female, C57, mouse, iv, total radioactivity; for tissue uptake dose at 0.5 h / tissue uptake at 0.5 h: 0.5 h post-injection; for tissue uptake dose at 4 h / tissue uptake at 4 h: 4 h post-injection; for tissue uptake dose at 24 h / tissue uptake at 24 h: 24 h post-injection
Method: All the animal studies were conducted in compliance with Institutional Animal Care and Use Committee approval. The pharmacokinetics of ^99mTc-RGD-Lys-(Arg^11)CCMSH was determined in B16/F1 melanoma-bearing C57 female mice (Harlan, Indianapolis, Ind.). C57 mice were subcutaneously inoculated on the right flank with 1×10^6 B16/F1 cells. The weight of tumors reached approximately 0.2 g 10 days post cell inoculation. Each melanoma-bearing mouse was injected with 0.037 MBq of ^99mTc-RGD-Lys-(Arg^11)CCMSH via the tail vein. Groups of 5 mice were sacrificed at 0.5, 2, 4 and 24 h post-injection, and tumors and organs of interest were harvested, weighed and counted. Blood values were taken as 6.5% of the whole-body weight. The MC1 receptor specificity of the tumor uptake was determined at 2 h post-injection by co-injecting ^99mTc-RGD-Lys-(Arg^11)CCMSH with 10 μg (6.1 nmol) of unlabeled NDP-MSH, a linear α-MSH peptide analogue with picomolar affinity for the MC1 receptors present on murine melanoma cells. The co-injection of 3.5 μg (6.1 nmol) of RGD peptide was performed to determine the αvβ3 integrin specificity of the tumor uptake 2 h post-injection. Statistical analysis was performed using the Student's t-test for unpaired data.
All the animal studies were conducted in compliance with Institutional Animal Care and Use Committee approval. The pharmacokinetics of ^99mTc-RGD-Arg-(Arg^11)CCMSH was determined in B16/F1 melanoma-bearing C57 female mice (Harlan, Indianapolis, Ind.). C57 mice were subcutaneously inoculated on the right flank with 1×10^6 B16/F1 cells. The weight of tumors reached approximately 0.2 g 10 days post cell inoculation. Each melanoma-bearing mouse was injected with 0.037 MBq of ^99mTc-RGD-Arg-(Arg^11)CCMSH via the tail vein. Groups of 5 mice were sacrificed at 0.5, 2, 4 and 24 h post-injection, and tumors and organs of interest were harvested, weighed and counted. Blood values were taken as 6.5% of the whole-body weight. The MC1 receptor specificity of the tumor uptake was determined at 2 h post-injection by co-injecting ^99mTc-RGD-Arg-(Arg^11)CCMSH with 10 μg (6.1 nmol) of unlabeled NDP-MSH. The co-injection of 3.5 μg (6.1 nmol) of RGD peptide was performed to determine the αvβ3 integrin specificity of the tumor uptake at 2 h post-injection.

[1] = bladder, 0.037 MBq, read-out: Bladder, Percentage Injected Dose
[2] = blood, 0.037 MBq, read-out: Blood, Percentage Injected Dose/gram
[3] = bone, 0.037 MBq, read-out: Bone, Percentage Injected Dose/gram
[4] = brain, 0.037 MBq, read-out: Brain, Percentage Injected Dose/gram
[5] = heart, 0.037 MBq, read-out: Heart, Percentage Injected Dose/gram
[6] = intestines, 0.037 MBq, read-out: Intestines, Percentage Injected Dose
[7] = kidneys, 0.037 MBq, read-out: Kidneys, Percentage Injected Dose/gram
[8] = liver, 0.037 MBq, read-out: Liver, Percentage Injected Dose/gram
[9] = lung, 0.037 MBq, read-out: Lung, Percentage Injected Dose/gram
[10] = muscle, 0.037 MBq, read-out: Muscle, Percentage Injected Dose/gram

dose excreted at 2 h (bladder (urine), 0.037 MBq, 2 h post-injection, read-out: Bladder, Percentage Injected Dose (cleared through the urinary system)): 62.3 ± 8.16% | tissue uptake dose at 0.5 h [1]: 46.9 ± 2.54 %ID | tissue uptake dose at 4 h [1]: 68.7 ± 2.06 %ID | tissue uptake dose at 24 h [1]: 78.2 ± 5.29 %ID | tissue uptake dose at 2 h (bladder, 2 h post-injection, NDP blockade (10 μg NDP-MSH co-injected), read-out: Bladder, Percentage Injected Dose): 75.9 ± 1.75 %ID | tissue uptake dose at 2 h (bladder, 2 h post-injection, RGD blockade (3.5 μg RGD co-injected), read-out: Bladder, Percentage Injected Dose): 75.1 ± 3.69 %ID | tissue uptake at 0.5 h [2]: 3.18 ± 0.51 %ID/g | tissue uptake at 2 h (blood, 0.037 MBq, 2 h post-injection, read-out: Blood, Percentage Injected Dose/gram): 0.96 ± 0.87 %ID/g | tissue uptake at 4 h [2]: 0.5 ± 0.27 %ID/g | tissue uptake at 24 h [2]: 0.11 ± 0.07 %ID/g | tissue uptake at 2 h (blood, 2 h post-injection, NDP blockade (10 μg NDP-MSH co-injected), read-out: Blood, Percentage Injected Dose/gram): 0.32 ± 0.34 %ID/g | tissue uptake at 2 h (blood, 2 h post-injection, RGD blockade (3.5 μg RGD co-injected), read-out: Blood, Percentage Injected Dose/gram): 0.53 ± 0.17 %ID/g | tissue uptake at 0.5 h [3]: 1.53 ± 0.75 %ID/g | tissue uptake at 2 h (bone, 0.037 MBq, 2 h post-injection, read-out: Bone, Percentage Injected Dose/gram): 1.05 ± 0.31 %ID/g | tissue uptake at 4 h [3]: 0.98 ± 0.67 %ID/g | tissue uptake at 24 h [3]: 0.71 ± 0.39 %ID/g | tissue uptake at 2 h (bone, 2 h post-injection, NDP blockade (10 μg NDP-MSH co-injected), read-out: Bone, Percentage Injected Dose/gram): 0.78 ± 0.65 %ID/g | tissue uptake at 2 h (bone, 2 h post-injection, RGD blockade (3.5 μg RGD co-injected), read-out: Bone, Percentage Injected Dose/gram): 0.37 ± 0.42 %ID/g | tissue uptake at 0.5 h [4]: 0.13 ± 0.03 %ID/g | tissue uptake at 2 h (brain, 0.037 MBq, 2 h post-injection, read-out: Brain, Percentage Injected Dose/gram): 0.12 ± 0.03 %ID/g | tissue uptake at 4 h [4]: 0.07 ± 0.04 %ID/g | tissue uptake at 24 h [4]: 0.06 ± 0.01 %ID/g | tissue uptake at 2 h (brain, 2 h post-injection, NDP blockade (10 μg NDP-MSH co-injected), read-out: Brain, Percentage Injected Dose/gram): 0.06 ± 0.02 %ID/g | tissue uptake at 2 h (brain, 2 h post-injection, RGD blockade (3.5 μg RGD co-injected), read-out: Brain, Percentage Injected Dose/gram): 0.03 ± 0.01 %ID/g | tissue uptake at 0.5 h [5]: 2.1 ± 0.41 %ID/g | tissue uptake at 2 h (heart, 0.037 MBq, 2 h post-injection, read-out: Heart, Percentage Injected Dose/gram): 0.85 ± 0.16 %ID/g | tissue uptake at 4 h [5]: 0.62 ± 0.31 %ID/g | tissue uptake at 24 h [5]: 0.39 ± 0.14 %ID/g | tissue uptake at 2 h (heart, with RGD peptide, 3.5 μg (6.1 nmol) co-injected, 2 h post-injection, RGD blockade (3.5 μg RGD co-injected), read-out: Heart, Percentage Injected Dose/gram): 0.37 ± 0.23 %ID/g | tissue uptake at 2 h (heart, with unlabeled NDP-MSH, 10 μg (6.1 nmol) co-injected, 2 h post-injection, NDP blockade (10 μg NDP-MSH co-injected), read-out: Heart, Percentage Injected Dose/gram): 0.47 ± 0.18 %ID/g | tissue uptake dose at 0.5 h [6]: 3.27 ± 0.13 %ID | tissue uptake dose at 2 h (intestines, 0.037 MBq, 2 h post-injection, read-out: Intestines, Percentage Injected Dose): 3.14 ± 1.2 %ID | tissue uptake dose at 4 h [6]: 2.95 ± 0.62 %ID | tissue uptake dose at 24 h [6]: 1.13 ± 0.18 %ID | tissue uptake dose at 2 h (intestines, 2 h post-injection, NDP blockade (10 μg NDP-MSH co-injected), read-out: Intestines, Percentage Injected Dose): 1.97 ± 0.17 %ID | tissue uptake dose at 2 h (intestines, 2 h post-injection, RGD blockade (3.5 μg RGD co-injected), read-out: Intestines, Percentage Injected Dose): 1.88 ± 0.16 %ID | tissue uptake at 0.5 h [7]: 69.4 ± 5.37 %ID/g | tissue uptake at 2 h (kidneys, 0.037 MBq, 2 h post-injection, read-out: Kidneys, Percentage Injected Dose/gram): 67.1 ± 8.79 %ID/g | tissue uptake at 4 h [7]: 68.3 ± 14.3 %ID/g | tissue uptake at 24 h [7]: 40.3 ± 10.8 %ID/g | tissue uptake at 2 h (kidneys, 2 h post-injection, NDP blockade (10 μg NDP-MSH co-injected), read-out: Kidneys, Percentage Injected Dose/gram): 59.5 ± 9.98 %ID/g | tissue uptake at 2 h (kidneys, 2 h post-injection, RGD blockade (3.5 μg RGD co-injected), read-out: Kidneys, Percentage Injected Dose/gram): 54.2 ± 15.1 %ID/g | tissue uptake at 0.5 h [8]: 4.02 ± 0.42 %ID/g | tissue uptake at 2 h (liver, 0.037 MBq, 2 h post-injection, read-out: Liver, Percentage Injected Dose/gram): 3.17 ± 1.43 %ID/g | tissue uptake at 4 h [8]: 2.91 ± 0.8 %ID/g | tissue uptake at 24 h [8]: 1.73 ± 0.33 %ID/g | tissue uptake at 2 h (liver, 2 h post-injection, NDP blockade (10 μg NDP-MSH co-injected), read-out: Liver, Percentage Injected Dose/gram): 2.89 ± 0.25 %ID/g | tissue uptake at 2 h (liver, 2 h post-injection, RGD blockade (3.5 μg RGD co-injected), read-out: Liver, Percentage Injected Dose/gram): 2.27 ± 0.23 %ID/g | tissue uptake at 0.5 h [9]: 5.31 ± 0.53 %ID/g | tissue uptake at 2 h (lung, 0.037 MBq, 2 h post-injection, read-out: Lung, Percentage Injected Dose/gram): 1.26 ± 0.32 %ID/g | tissue uptake at 4 h [9]: 1.07 ± 0.42 %ID/g | tissue uptake at 24 h [9]: 0.94 ± 0.45 %ID/g | tissue uptake at 2 h (lung, 2 h post-injection, NDP blockade (10 μg NDP-MSH co-injected), read-out: Lung, Percentage Injected Dose/gram): 1.31 ± 0.47 %ID/g | tissue uptake at 2 h (lung, 2 h post-injection, RGD blockade (3.5 μg RGD co-injected), read-out: Lung, Percentage Injected Dose/gram): 1.12 ± 0.1 %ID/g | tissue uptake at 0.5 h [10]: 0.38 ± 0.17 %ID/g | tissue uptake at 2 h (muscle, 0.037 MBq, 2 h post-injection, read-out: Muscle, Percentage Injected Dose/gram): 0.34 ± 0.29 %ID/g | tissue uptake at 4 h [10]: 0.13 ± 0.07 %ID/g | tissue uptake at 24 h [10]: 0.23 ± 0.19 %ID/g | tissue uptake at 2 h (muscle, 2 h post-injection, NDP blockade (10 μg NDP-MSH co-injected), read-out: Muscle, Percentage Injected Dose/gram): 0.21 ± 0.12 %ID/g | tissue uptake at 2 h (muscle, 2 h post-injection, RGD blockade (3.5 μg RGD co-injected), read-out: Muscle, Percentage Injected Dose/gram): 0.15 ± 0.06 %ID/g
Structure (SMILES): CC(C)[C@H](NC(=O)[C@@H]1CCCN1C(=O)[C@H](CCCNC(=N)N)NC(=O)[C@H](CS)NC(=O)[C@H](Cc1c[nH]c2ccccc12)NC(=O)[C@H](CCCNC(=N)N)NC(=O)[C@@H](Cc1ccccc1)NC(=O)[C@H](Cc1c[nH]cn1)NC(=O)[C@H](CCC(=O)O)NC(=O)[C@H](CS)NC(=O)[C@H](CS)NC(=O)[C@H](CCCCN)NC(=O)[C@@H]1CC(=O)N[C@@H](CCCNC(=N)N)C(=O)NCC(=O)N[C@@H](CC(=O)O)C(=O)N[C@H](Cc2ccc(O)cc2)C(=O)N1)C(N)=O [^99mTc-RGD-Lys-(Arg^11)CCMSH, metal not drawn] (RGD[dY]DKCCEH[dF]RWCRPV-NH2; lactam N-5)
